Assay results published in paper PMC11589570, “Critical assessment of LC3/GABARAP ligands used for degrader development and ligandability of LC3/GABARAP binding pockets” (Nature Communications, 2024).
Where “and” joins values, the source holds several entries; their conditions need not be identical. Equal values may be shown once.

Key:
RPE1 cells = assay: Cell growth assay (IncuCyte confluence over 72 h); assay type: cell-based; details: listed as KT1
Method: Cell growth assay: Cell confluence (phase) from RPE1 (hTERT RPE-1, ATCC CLR_4000) or U2OS (ATCC, HTB-96) cell lines were monitored over time with the IncuCyte S3 (Sartiorius, Germany) in 384-well plates in 50 ul DMEM media, supplemented with 10% Fetal Bovine Serum (FBS) 1% penicillin/Streptomycin and incubated 24 h before treatment. Experiment was performed as described in Cano-Franco et al.. 50 μl of media containing either 2× final concentration of indicated compounds in or control compounds (final conc.: 0.1% DMSO, 250 nM Torin1, 200 ng/mL Bafilomycin) were added and images were taken every two hours over 72 h. Cell confluence is represented as % of area covered by cells. Each data point represents the average ratio or confluence obtained from three individual wells of the plate.

LC3B = LC3B (Homo sapiens, UniProt Q9GZQ8); assay: FP assay with Cy5-labelled p62 LIR tracer (protein titration and tracer displacement); assay type: binding; details: for normalized FP signal, p62 LIR tracer displacement: LC3B; for compound titration LC3B (displacement curve, FP signal): two replicate columns per compound
LC3A [1] = molecular target: T1, LC3A (Homo sapiens, UniProt Q9H492); assay: Isothermal titration calorimetry (ITC); assay type: binding; details: LC3A
Excerpt: To minimize nonspecific dilution heat effects, DMSO concentrations in the protein and compound samples were matched. […] For this protocol, the chamber was pre-equilibrated with the protein, and the test compounds were titrated while continuously measuring the rate of exothermic heat evolution. The heat of binding was integrated, corrected, and fitted to an independent single-binding site model based on the manufacturer’s instructions, from which thermodynamic parameters (ΔH and TΔS), equilibrium association and dissociation constants (KA and KD, respectively), and stoichiometry (n) were calculated using TA Instruments NanoAnalyze software.

LC3A [2] = molecular target: T1, LC3A; assay: FP assay with Cy5-labelled p62 LIR tracer (protein titration and tracer displacement); assay type: binding; details: two replicate columns per compound
[3] = log10 concentration [M] -3.82391
[4] = log10 concentration [M] -4.1549
[5] = log10 concentration [M] -4.60206
[6] = log10 concentration [M] -5.30103
[7] = log10 concentration [M] -5.69897
[8] = log10 concentration [M] -6.22185
[9] = log10 concentration [M] -6.69897
[10] = log10 concentration [M] -7.30103
[11] = log10 concentration [M] -7.79588
[12] = log10 concentration [M] -8.08092

Cc1ccc(C)c(S(=O)(=O)Nc2cc(SCC(=O)O)c(O)c3ccccc23)c1 [compound 8]
RPE1 cell growth (RPE1 cells; 100 nM, 0 h): 18 and 24 and 13
RPE1 cell growth (RPE1 cells; 100 nM, 6 h): 23 and 30 and 15
RPE1 cell growth (RPE1 cells; 100 nM, 8 h): 25 and 30 and 16
RPE1 cell growth (RPE1 cells; 100 nM, 10 h): 25 and 32 and 17
RPE1 cell growth (RPE1 cells; 100 nM, 12 h): 24 and 34 and 18
RPE1 cell growth (RPE1 cells; 1 uM, 0 h): 19 and 20 and 26
RPE1 cell growth (RPE1 cells; 1 uM, 2 h): 20 and 28
RPE1 cell growth (RPE1 cells; 1 uM, 4 h): 20 and 25 and 32
RPE1 cell growth (RPE1 cells; 1 uM, 6 h): 21 and 26 and 32
RPE1 cell growth (RPE1 cells; 1 uM, 8 h): 22 and 29 and 35
RPE1 cell growth (RPE1 cells; 1 uM, 10 h): 25 and 29 and 37
RPE1 cell growth (RPE1 cells; 1 uM, 12 h): 27 and 32 and 38
RPE1 cell growth (RPE1 cells; 1 uM, 14 h): 29
RPE1 cell growth (RPE1 cells; 3 uM, 0 h): 20 and 28 and 21
RPE1 cell growth (RPE1 cells; 3 uM, 2 h): 23 and 30 and 21
RPE1 cell growth (RPE1 cells; 3 uM, 4 h): 25 and 34 and 21
RPE1 cell growth (RPE1 cells; 3 uM, 6 h): 25 and 34 and 23
RPE1 cell growth (RPE1 cells; 3 uM, 8 h): 29 and 35 and 24
RPE1 cell growth (RPE1 cells; 3 uM, 10 h): 29 and 37 and 26
RPE1 cell growth (RPE1 cells; 3 uM, 12 h): 30 and 38 and 28
RPE1 cell growth (RPE1 cells; 3 uM, 14 h): 32 and 42 and 30
RPE1 cell growth (RPE1 cells; 5 uM, 0 h): 17 and 27 and 20
RPE1 cell growth (RPE1 cells; 5 uM, 2 h): 20 and 30
RPE1 cell growth (RPE1 cells; 5 uM, 4 h): 22 and 33 and 21
RPE1 cell growth (RPE1 cells; 5 uM, 6 h): 22 and 36
RPE1 cell growth (RPE1 cells; 5 uM, 8 h): 26 and 37 and 23
RPE1 cell growth (RPE1 cells; 5 uM, 10 h): 25 and 39
RPE1 cell growth (RPE1 cells; 5 uM, 12 h): 28 and 40 and 27
RPE1 cell growth (RPE1 cells; 5 uM, 14 h): 29 and 45
RPE1 cell growth (RPE1 cells; 10 uM, 0 h): 17 and 22 and 19
RPE1 cell growth (RPE1 cells; 10 uM, 2 h): 20 and 23
RPE1 cell growth (RPE1 cells; 10 uM, 4 h): 23 and 26 and 20
RPE1 cell growth (RPE1 cells; 10 uM, 6 h): 24 and 31 and 22
RPE1 cell growth (RPE1 cells; 10 uM, 8 h): 25 and 29 and 23
RPE1 cell growth (RPE1 cells; 10 uM, 10 h): 26 and 28 and 25
RPE1 cell growth (RPE1 cells; 10 uM, 12 h): 28 and 32 and 27
normalized FP signal, p62 LIR tracer displacement (LC3B; [3]): 74.4737 and 78.6842
normalized FP signal, p62 LIR tracer displacement (LC3B; [4]): 94.4737 and 95.2632
normalized FP signal, p62 LIR tracer displacement (LC3B; [5]): 95 and 102.105
normalized FP signal, p62 LIR tracer displacement (LC3B; log10 concentration [M] -5): 92.8947 and 101.053
normalized FP signal, p62 LIR tracer displacement (LC3B; [6]): 97.1053 and 100
normalized FP signal, p62 LIR tracer displacement (LC3B; [7]): 93.6842 and 95.5263
normalized FP signal, p62 LIR tracer displacement (LC3B; [8]): 100 and 92.1053
normalized FP signal, p62 LIR tracer displacement (LC3B; [9]): 96.8421 and 99.4737
normalized FP signal, p62 LIR tracer displacement (LC3B; [10]): 97.8947 and 102.368
normalized FP signal, p62 LIR tracer displacement (LC3B; [11]): 96.5789 and 100
normalized FP signal, p62 LIR tracer displacement (LC3B; [12]): 100.789 and 96.5789
compound titration LC3B (displacement curve, FP signal) (LC3B; [3]): 74.4737 and 78.6842
compound titration LC3B (displacement curve, FP signal) (LC3B; [4]): 94.4737 and 95.2632
compound titration LC3B (displacement curve, FP signal) (LC3B; [5]): 95 and 102.105
compound titration LC3B (displacement curve, FP signal) (LC3B; log10 concentration [M] -5): 92.8947 and 101.053
compound titration LC3B (displacement curve, FP signal) (LC3B; [6]): 97.1053 and 100
compound titration LC3B (displacement curve, FP signal) (LC3B; [7]): 93.6842 and 95.5263
compound titration LC3B (displacement curve, FP signal) (LC3B; [8]): 100 and 92.1053
compound titration LC3B (displacement curve, FP signal) (LC3B; [9]): 96.8421 and 99.4737
compound titration LC3B (displacement curve, FP signal) (LC3B; [10]): 97.8947 and 102.368
compound titration LC3B (displacement curve, FP signal) (LC3B; [11]): 96.5789 and 100
compound titration LC3B (displacement curve, FP signal) (LC3B; [12]): 100.789 and 96.5789
outcome of ITC titration (LC3A [1]): induced protein precipitation
compound titration LC3A (displacement curve, FP signal) (LC3A [2]; [3]): 97.6316 and 96.3158
compound titration LC3A (displacement curve, FP signal) (LC3A [2]; [4]): 102.368 and 100.263
compound titration LC3A (displacement curve, FP signal) (LC3A [2]; [5]): 93.6842 and 106.579
compound titration LC3A (displacement curve, FP signal) (LC3A [2]; log10 concentration [M] -5): 101.842 and 99.2105
compound titration LC3A (displacement curve, FP signal) (LC3A [2]; [6]): 105 and 102.368
compound titration LC3A (displacement curve, FP signal) (LC3A [2]; [7]): 101.842 and 94.2105
compound titration LC3A (displacement curve, FP signal) (LC3A [2]; [8]): 98.9474 and 95.2632
compound titration LC3A (displacement curve, FP signal) (LC3A [2]; [9]): 98.4211
compound titration LC3A (displacement curve, FP signal) (LC3A [2]; [10]): 101.842 and 96.5789
compound titration LC3A (displacement curve, FP signal) (LC3A [2]; [11]): 97.8947 and 91.3158
compound titration LC3A (displacement curve, FP signal) (LC3A [2]; [12]): 102.105 and 89.4737
